Drawing on ChEMBL document CHEMBL3817810, “Four new minor brominated indole related alkaloids with antibacterial activities from Laurencia similis” (2016), this text covers MIC for five compounds.

Format in all cases: functional
The test system of assay [1] is Pseudomonas amygdali pv. lachrymans. Briefly: Antibacterial activity against Pseudomonas lachrymans by broth microdilution assay. Background: In broth dilution the organism is exposed to a series of concentrations in liquid medium.
For assay [2], the system named is Xanthomonas vesicatoria. The assay is described as follows: Antibacterial activity against Xanthomonas vesicatoria by broth microdilution assay.
Assay [3] has as its system Bacillus subtilis. Briefly: Antibacterial activity against Bacillus subtilis by broth microdilution assay.
Assay [4] deals with Staphylococcus aureus. The assay is described as follows: Antibacterial activity against Staphylococcus aureus by broth microdilution assay.
Assay [5] concerns Ralstonia solanacearum. Briefly: Antibacterial activity against Ralstonia solanacearum by broth microdilution assay.
For assay [6], the system named is Agrobacterium tumefaciens. The assay is described as follows: Antibacterial activity against Agrobacterium tumefaciens by broth microdilution assay.
The test system of assay [7] is Bacillus thuringiensis. The assay is described as follows: Antibacterial activity against Bacillus thuringiensis by broth microdilution assay.

Values after ≈ are worked out from the molar mass of the structure shown.

For `Cc1cc(C)c2[nH]c3cc(Br)c(Br)cc3c2c1`, the minimal inhibitory concentration (MIC) was greater than 250 µg/mL in assay [1]; 50 µg/mL (≈ 142 µM) in assay [2]; greater than 250 µg/mL in assay [3]; greater than 250 µg/mL in assay [4]; greater than 250 µg/mL in assay [5]; greater than 250 µg/mL in assay [6]. The compound also yielded an MIC in assay [7] greater than 250 µg/mL.
`CC1(C)S[C@@H]2[C@H](NC(=O)Cc3ccccc3)C(=O)N2[C@H]1C(=O)O` [PENICILLIN G]: the MIC amounted to 250 µg/mL (≈ 748 µM) in assay [1]; 250 µg/mL (≈ 748 µM) in assay [2]; 0.125 µg/mL (≈ 0.374 µM) in assay [3]; 0.25 µg/mL (≈ 0.748 µM) in assay [4]; 250 µg/mL (≈ 748 µM) in assay [5]; 250 µg/mL (≈ 748 µM) in assay [6]. Besides, in assay [7], it took 64 µg/mL (≈ 191 µM) to inhibit growth (MIC).
`Oc1ccc(Cc2c(Br)[nH]c3cc(Br)c(Br)cc23)cc1Br`: the minimal inhibitory concentration (MIC) in assay [1] came to 8 µg/mL (≈ 14.8 µM); in assay [2], 8 µg/mL (≈ 14.8 µM); in assay [3], 8 µg/mL (≈ 14.8 µM); in assay [4], 2 µg/mL (≈ 3.71 µM); in assay [5] it was 4 µg/mL (≈ 7.42 µM); in assay [6] it was 4 µg/mL (≈ 7.42 µM). In addition, it took 8 µg/mL (≈ 14.8 µM) to inhibit growth in assay [7] (MIC).
Take `CC(C)=C1C(=O)N(O)c2cc(Br)c(Br)cc21`: the MIC in assay [1] was 50 µg/mL (≈ 144 µM); in assay [2], greater than 250 µg/mL; in assay [3], 50 µg/mL (≈ 144 µM); in assay [4] it was 12.5 µg/mL (≈ 36 µM); in assay [5], 50 µg/mL (≈ 144 µM); in assay [6], 12.5 µg/mL (≈ 36 µM). In assay [7], this compound registered an MIC of 50 µg/mL (≈ 144 µM).
For the compound `COC(=O)Nc1cc(Br)c(Br)cc1C(=O)OC`, the MIC in assay [1], in assay [2], in assay [3], in assay [4], in assay [5] and in assay [6] was greater than 250 µg/mL throughout. In assay [7], this compound registered an MIC greater than 250 µg/mL.

A word on the MIC: it is the lowest concentration that inhibits growth of the organism.
